Measurements from PubChem BioAssay (NCI).
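96-well plates; 48 h exposure; 5 concentrations. Endpoints by linear interpolation between flanking doses. Not reached: highest tested concentration assigned. TGI is the concentration that stops growth completely.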

Key:
Test in all cases: NCI tumour cell line growth inhibition, 48 h
[1] = system: OVCAR-3 ovarian
[2] = system: MCF7 breast
[3] = system: M14 melanoma
[4] = system: PC-3 prostate
[5] = system: HCC-2998 colon
[6] = system: IGROV1 ovarian
[7] = system: HOP-92 NSCLC
[8] = system: SF-539 CNS
[9] = system: NCI-H226 lung
[10] = system: SW-620 colon

Q: Which results are given for O=[N+]([O-])c1cc(C2ON=C(c3ccccc3)N2C23CC4CC(CC(C4)C2)C3)ccc1Cl (configuration not stated)?
A: TGI [1]: > 100 µM; TGI [2]: > 100 µM; TGI [3]: > 100 µM; TGI [4]: > 100 µM; TGI [5]: > 100 µM; TGI [6]: > 100 µM; TGI [7]: > 100 µM; TGI [8]: > 100 µM; TGI [9]: > 100 µM

Q: With COc1ccc(/C=C2/C(=O)C(c3ccccc3)N(c3ccccc3)C2=O)cc1OC (configuration not stated) as the compound, how does the TGI [1] read?
A: > 10 µM

Q: What about the TGI [10] of the same compound?
A: > 10 µM

Q: What about the TGI [2] of the same compound?
A: > 10 µM

Q: What about the TGI [3] of the same compound?
A: > 10 µM

Q: And the TGI [4]?
A: > 10 µM

Q: And the TGI [5]?
A: > 10 µM

Q: What about the TGI [6] of the same compound?
A: 2.28 µM

Q: And the TGI [7]?
A: > 10 µM

Q: What about the TGI [8] of the same compound?
A: > 10 µM

Q: What about the TGI [9] of the same compound?
A: > 10 µM

Q: Cc1csc(CP(=O)(OC(C)C)OC(C)C)n1 was tested. Which TGI [1] did it give?
A: > 100 µM

Q: And the TGI [10]?
A: > 100 µM

Q: What about the TGI [2] of the same compound?
A: > 100 µM

Q: And the TGI [3]?
A: > 100 µM

Q: What about the TGI [4] of the same compound?
A: > 100 µM

Q: What about the TGI [5] of the same compound?
A: > 100 µM

Q: And the TGI [6]?
A: > 100 µM

Q: And the TGI [7]?
A: > 100 µM

Q: And the TGI [8]?
A: > 100 µM

Q: And the TGI [9]?
A: > 100 µM

Q: With COc1ccc(OC)c2c1-c1nnnn1CCC2(C)C as the compound, how does the TGI [1] read?
A: > 100 µM

Q: And the TGI [10]?
A: > 100 µM

Q: And the TGI [2]?
A: > 100 µM

Q: What about the TGI [3] of the same compound?
A: > 100 µM

Q: What about the TGI [4] of the same compound?
A: > 100 µM

Q: And the TGI [5]?
A: > 100 µM

Q: What about the TGI [6] of the same compound?
A: > 100 µM

Q: What about the TGI [7] of the same compound?
A: > 100 µM

Q: And the TGI [8]?
A: > 100 µM

Q: And the TGI [9]?
A: > 100 µM

Q: Which results are given for c1ccc2c[n+](Cc3ccnc4ccccc34)ccc2c1?
A: TGI [1]: > 100 µM; TGI [10]: > 100 µM; TGI [2]: > 100 µM; TGI [3]: > 100 µM; TGI [4]: > 100 µM; TGI [5]: > 100 µM; TGI [6]: > 100 µM; TGI [7]: > 100 µM; TGI [8]: > 100 µM; TGI [9]: > 100 µM

Q: Which TGI [1] does the source give for Cc1c(OCc2cccc3ccccc23)ccc2c(=O)cc(S)oc12 here?
A: 53.6 µM

Q: And the TGI [10]?
A: > 100 µM

Q: What about the TGI [2] of the same compound?
A: > 100 µM

Q: And the TGI [3]?
A: > 100 µM

Q: What about the TGI [4] of the same compound?
A: > 100 µM

Q: What about the TGI [5] of the same compound?
A: > 100 µM

Q: And the TGI [6]?
A: > 100 µM

Q: What about the TGI [7] of the same compound?
A: 67.1 µM

Q: And the TGI [8]?
A: 65.2 µM

Q: And the TGI [9]?
A: > 100 µM

Q: Which TGI [1] does the source give for Oc1ccccc1/C=N/N1C(=S)N(c2ccccc2)C(=Nc2ccccc2)C1=Nc1ccccc1 here?
A: 28.2 µM

Q: What about the TGI [10] of the same compound?
A: > 54.1 µM

Q: And the TGI [2]?
A: > 100 µM

Q: What about the TGI [3] of the same compound?
A: 28.7 µM

Q: What about the TGI [4] of the same compound?
A: 47.2 µM

Q: And the TGI [5]?
A: > 78.2 µM

Q: What about the TGI [6] of the same compound?
A: 30.8 µM

Q: And the TGI [7]?
A: 16.3 µM

Q: What about the TGI [8] of the same compound?
A: 17.9 µM

Q: What about the TGI [9] of the same compound?
A: 26.4 µM

Q: Which results are given for O=C1CCCC1C(O)(C(F)(F)Cl)C(F)(F)Cl (configuration not stated)?
A: TGI [1]: > 10 µM; TGI [10]: > 10 µM; TGI [2]: > 10 µM; TGI [3]: > 10 µM; TGI [4]: > 10 µM; TGI [5]: > 10 µM; TGI [6]: > 10 µM; TGI [7]: > 10 µM; TGI [8]: > 10 µM; TGI [9]: > 10 µM

Q: Which results are given for CC1(C)CC(=O)C(/C=N/c2nc(-c3cccc([N+](=O)[O-])c3)cs2)=C(O)C1?
A: TGI [1]: > 100 µM; TGI [10]: 25.6 µM; TGI [2]: 34 µM; TGI [3]: 38.2 µM; TGI [4]: > 100 µM; TGI [5]: 29.1 µM; TGI [6]: 44.7 µM; TGI [7]: 39.6 µM; TGI [8]: 45.6 µM; TGI [9]: 36.5 µM

Q: Which TGI [1] does the source give for CC1(C)C/C=C\CCC(O)C(O)CCC(C)(C)C1=O (configuration not stated) here?
A: > 100 µM

Q: And the TGI [10]?
A: > 100 µM

Q: What about the TGI [2] of the same compound?
A: > 100 µM

Q: And the TGI [4]?
A: > 100 µM

Q: And the TGI [5]?
A: > 100 µM

Q: And the TGI [6]?
A: > 100 µM

Q: What about the TGI [7] of the same compound?
A: > 100 µM

Q: And the TGI [8]?
A: > 100 µM

Q: What about the TGI [9] of the same compound?
A: > 100 µM

Q: What does the source list for COc1ccc(C2=Nn3c(C)nnc3S/C2=C\c2ccc(-c3ccc([N+](=O)[O-])cc3)o2)cc1?
A: TGI [1]: 33 µM; TGI [2]: 88.7 µM; TGI [3]: 48.2 µM; TGI [4]: 59.5 µM; TGI [5]: 19.9 µM; TGI [6]: 42.7 µM; TGI [7]: 62.2 µM; TGI [8]: 25.6 µM; TGI [9]: 46.2 µM

Q: O=c1[nH]nc(-c2ccccc2)c2[nH]c3c(c12)CCCc1ccccc1-3 was tested. Which TGI [1] did it give?
A: 66.3 µM

Q: What about the TGI [10] of the same compound?
A: 50.8 µM

Q: And the TGI [2]?
A: 50.9 µM

Q: And the TGI [3]?
A: 36.9 µM

Q: What about the TGI [4] of the same compound?
A: 58.5 µM

Q: What about the TGI [5] of the same compound?
A: 28 µM

Q: And the TGI [6]?
A: 25 µM

Q: And the TGI [7]?
A: 54.8 µM

Q: And the TGI [8]?
A: 36.1 µM

Q: What about the TGI [9] of the same compound?
A: 37.5 µM

Q: Which results are given for COc1cc(CNC(=O)CCCCCCCCCCSC#N)ccc1O?
A: TGI [1]: 26.2 µM; TGI [10]: 36.4 µM; TGI [2]: 34.9 µM; TGI [3]: 21.5 µM; TGI [4]: 27.5 µM; TGI [5]: > 100 µM; TGI [6]: 22.9 µM; TGI [7]: 34.8 µM; TGI [8]: 37.1 µM; TGI [9]: 37.8 µM

Q: O=[N+]([O-])C(=C(\Cl)NCCO)/C(Cl)=C(/Cl)Br was tested. Which TGI [1] did it give?
A: 2.62 µM

Q: What about the TGI [10] of the same compound?
A: 2.68 µM

Q: And the TGI [2]?
A: 2.59 µM

Q: What about the TGI [3] of the same compound?
A: 3.68 µM

Q: What about the TGI [4] of the same compound?
A: 7.68 µM

Q: What about the TGI [5] of the same compound?
A: 11.1 µM

Q: And the TGI [6]?
A: 10.6 µM

Q: What about the TGI [7] of the same compound?
A: 3.53 µM

Q: And the TGI [8]?
A: 6.15 µM

Q: And the TGI [9]?
A: 17.7 µM

Q: Which results are given for O=C1CN2CCN(CC2)CC(=O)Nc2ccc(cc2)S(=O)(=O)c2ccc(cc2)NC(=O)CN2CCN(CC2)CC(=O)Nc2ccc(cc2)S(=O)(=O)c2ccc(cc2)N1?
A: TGI [1]: > 100 µM; TGI [10]: 50.7 µM; TGI [2]: > 100 µM; TGI [3]: > 78.6 µM; TGI [4]: > 100 µM; TGI [5]: > 100 µM; TGI [6]: > 100 µM; TGI [7]: > 100 µM; TGI [8]: 49.2 µM; TGI [9]: > 100 µM

Q: Which TGI [1] does the source give for FC(F)(F)c1ccc(N=NN2CCCC2)cc1 here?
A: > 100 µM

Q: And the TGI [10]?
A: > 100 µM

Q: And the TGI [2]?
A: > 100 µM

Q: What about the TGI [3] of the same compound?
A: > 100 µM

Q: And the TGI [4]?
A: > 100 µM

Q: And the TGI [5]?
A: > 100 µM

Q: What about the TGI [6] of the same compound?
A: > 100 µM

Q: What about the TGI [7] of the same compound?
A: > 100 µM

Q: What about the TGI [8] of the same compound?
A: > 100 µM

Q: What about the TGI [9] of the same compound?
A: > 100 µM
